≈ marks a conversion by molar mass, not a printed value. Like-named read-outs stand apart in the source and are kept apart here.
Experiments:
bacterial inoculum [1] = assay: Evaluation of biocides: inhibition of growth on FT diesel and ALAD diesel; type: cell-based, alkane degrading organisms; for Growth, Test Results on ALAD Diesel Fuel: key: −: No Growth; +: Growth (White Unless Otherwise Indicated); for Growth, Test Results on Fischer-Tropsch Diesel Fuel: key: −: No Growth; +: Growth (White Unless Otherwise Indicated)
Protocol: The ability of biocides to inhibit growth on a FT diesel and a low aromatics diesel fuel from Example 1 was investigated.
Test Conditions: 90 ml of growth media and 10 ml of either FT diesel or low sulfur (ALAD) diesel was added to 250 ml flasks. […] In addition to the 2 alkynes, glutaraldehyde (glutaric dialdehyde 50%), was tested. The following summarizes the test conditions:
100 ppm inhibitor (on a total test volume basis or 1000 ppm in diesel)
1% inhibitor (on a total test volume basis or 10% in diesel).
After inoculation, the flasks were place on a shaker-table (135 rpm) at room temperature and observed daily.

in vivo = details: Cyprinodon variegatus (sheepshead minnow, larval)
Protocol: (§1) […]. EPA/600/4-90/027F Washington, D.C.) conducted at Pacific Eco-Risk Laboratories, Martinez, Calif.
(§2) LOEC is the Lowest Observable Effect Concentration and is defined as the minimum concentration where mortality is observed for the test species. […] LC-50, the concentration that will cause mortality of 50% of the organisms tested within 96 h, is a calculated value based on all observations.
(§3) The solutions were mixed for 48 hours prior to the start of the bioassays. The solutions were diluted to perform bioassays at starting glutaraldehyde concentrations of 100, 50, 37.5, 25, and 10.5 mg/L. The results are summarized in Table X.

[2] = test system: Larval Sheepshead Minnow (Cyprinodon variegatus); assay: in vivo; details: Cyprinodon variegatus (sheepshead minnow), 96 h
Protocol: as §1, §2, §3

bacterial inoculum [3] = assay: Neutralization of biocides with monoethanolamine; type: cell-based; details: for Growth, Neutralization of Biocides with MEA: minimal media:FT diesel 10:1; for onset of microbial growth (delayed from 3 days): no MEA
Protocol: In all experiments, a 10:1 ratio of minimal media to Fischer-Tropsch diesel fuel were prepared and evaluated in 250 ml flasks.
In addition to these experiments, several controls were run without Glutaraldehyde as follows: […]

bacterial inoculum [4] = type: cell-based; details: for Growth, nitrogen compound control: control without glutaraldehyde; for Growth, nitrogen compound control / Growth, Neutralization of Biocides with Nitrogen Compounds: n-C16; for Growth, Neutralization of Biocides with Nitrogen Compounds: with 10 ppm glutaraldehyde, two moles nitrogen compound per glutaraldehyde
Description: The different nitrogen-containing compounds evaluated include the following: […]

[5] = 96 h, control experiment, separate compounds

O=CCCCC=O [G, glutaraldehyde]
effectiveness as biocide (inhibits microbial growth) (bacterial inoculum [1]; ALAD diesel fuel): effective at a lower concentration
Growth, Test Results on Fischer-Tropsch Diesel Fuel (bacterial inoculum [1]; FT Diesel + 1 Wt % biocide, Day 0): −
Growth, Test Results on Fischer-Tropsch Diesel Fuel (bacterial inoculum [1]; FT Diesel + 1 Wt % biocide, Day 1): −
Growth, Test Results on Fischer-Tropsch Diesel Fuel (bacterial inoculum [1]; FT Diesel + 1 Wt % biocide, Day 5): −
Growth, Test Results on Fischer-Tropsch Diesel Fuel (bacterial inoculum [1]; FT Diesel + 1 Wt % biocide, Day 7): −
Growth, Test Results on Fischer-Tropsch Diesel Fuel (bacterial inoculum [1]; FT Diesel + 1 Wt % biocide, Day 8): −
Growth, Test Results on Fischer-Tropsch Diesel Fuel (bacterial inoculum [1]; FT Diesel + 1 Wt % biocide, Day 19): −
Growth, Test Results on Fischer-Tropsch Diesel Fuel (bacterial inoculum [1]; FT Diesel + 100 ppm biocide, Day 0): −
Growth, Test Results on Fischer-Tropsch Diesel Fuel (bacterial inoculum [1]; FT Diesel + 100 ppm biocide, Day 1): −
Growth, Test Results on Fischer-Tropsch Diesel Fuel (bacterial inoculum [1]; FT Diesel + 100 ppm biocide, Day 5): −
Growth, Test Results on Fischer-Tropsch Diesel Fuel (bacterial inoculum [1]; FT Diesel + 100 ppm biocide, Day 7): −
Growth, Test Results on Fischer-Tropsch Diesel Fuel (bacterial inoculum [1]; FT Diesel + 100 ppm biocide, Day 8): −
Growth, Test Results on Fischer-Tropsch Diesel Fuel (bacterial inoculum [1]; FT Diesel + 100 ppm biocide, Day 19): +
effectiveness as biocide (inhibits microbial growth) (bacterial inoculum [1]; Fischer-Tropsch diesel fuel): effective at a lower concentration
Growth, Test Results on ALAD Diesel Fuel (bacterial inoculum [1]; LA Diesel + 1 Wt % biocide, Day 0): −
Growth, Test Results on ALAD Diesel Fuel (bacterial inoculum [1]; LA Diesel + 1 Wt % biocide, Day 1): −
Growth, Test Results on ALAD Diesel Fuel (bacterial inoculum [1]; LA Diesel + 1 Wt % biocide, Day 5): −
Growth, Test Results on ALAD Diesel Fuel (bacterial inoculum [1]; LA Diesel + 1 Wt % biocide, Day 7): −
Growth, Test Results on ALAD Diesel Fuel (bacterial inoculum [1]; LA Diesel + 1 Wt % biocide, Day 8): −
Growth, Test Results on ALAD Diesel Fuel (bacterial inoculum [1]; LA Diesel + 1 Wt % biocide, Day 19): −
Growth, Test Results on ALAD Diesel Fuel (bacterial inoculum [1]; LA Diesel + 100 ppm biocide, Day 0): −
Growth, Test Results on ALAD Diesel Fuel (bacterial inoculum [1]; LA Diesel + 100 ppm biocide, Day 1): −
Growth, Test Results on ALAD Diesel Fuel (bacterial inoculum [1]; LA Diesel + 100 ppm biocide, Day 5): −
Growth, Test Results on ALAD Diesel Fuel (bacterial inoculum [1]; LA Diesel + 100 ppm biocide, Day 7): −
Growth, Test Results on ALAD Diesel Fuel (bacterial inoculum [1]; LA Diesel + 100 ppm biocide, Day 8): −
Growth, Test Results on ALAD Diesel Fuel (bacterial inoculum [1]; LA Diesel + 100 ppm biocide, Day 19): −
LC50 at 96 h (in vivo; [5]): 26 µg/mL (≈ 260 µM)
LC50 at 96 h (in vivo; second experiment, as starting glutaraldehyde concentration, solutions mixed for 48 hours prior to bioassay): 25 µg/mL (≈ 250 µM)
LOEC [2]: 25 mg/L
NOEC [2]: 13 mg/L
Growth, Neutralization of Biocides with MEA (bacterial inoculum [3]; 1 ppm G, Time 0 days): −
Growth, Neutralization of Biocides with MEA (bacterial inoculum [3]; 1 ppm G, Time 1 days): −
Growth, Neutralization of Biocides with MEA (bacterial inoculum [3]; 1 ppm G, Time 2 days): −
Growth, Neutralization of Biocides with MEA (bacterial inoculum [3]; 1 ppm G, Time 3 days): −
Growth, Neutralization of Biocides with MEA (bacterial inoculum [3]; 1 ppm G, Time 7 days): −
Growth, Neutralization of Biocides with MEA (bacterial inoculum [3]; 1 ppm G, Time 9 days): +
Growth, Neutralization of Biocides with MEA (bacterial inoculum [3]; 1 ppm G, Time 14 days): +
onset of microbial growth (delayed from 3 days) (bacterial inoculum [3]; 1 ppm of glutaraldehyde): 9 days
Growth, Neutralization of Biocides with MEA (bacterial inoculum [3]; 10 ppm G, Time 0 days): −
Growth, Neutralization of Biocides with MEA (bacterial inoculum [3]; 10 ppm G, Time 1 days): −
Growth, Neutralization of Biocides with MEA (bacterial inoculum [3]; 10 ppm G, Time 2 days): −
Growth, Neutralization of Biocides with MEA (bacterial inoculum [3]; 10 ppm G, Time 3 days): −
Growth, Neutralization of Biocides with MEA (bacterial inoculum [3]; 10 ppm G, Time 7 days): −
Growth, Neutralization of Biocides with MEA (bacterial inoculum [3]; 10 ppm G, Time 9 days): −
Growth, Neutralization of Biocides with MEA (bacterial inoculum [3]; 10 ppm G, Time 14 days): −
onset of microbial growth (delayed from 3 days) (bacterial inoculum [3]; 10 ppm of glutaraldehyde): more than 14 days
Growth, Neutralization of Biocides with MEA (bacterial inoculum [3]; 100 ppm G, Time 0 days): −
Growth, Neutralization of Biocides with MEA (bacterial inoculum [3]; 100 ppm G, Time 1 days): −
Growth, Neutralization of Biocides with MEA (bacterial inoculum [3]; 100 ppm G, Time 2 days): −
Growth, Neutralization of Biocides with MEA (bacterial inoculum [3]; 100 ppm G, Time 3 days): −
Growth, Neutralization of Biocides with MEA (bacterial inoculum [3]; 100 ppm G, Time 7 days): −
Growth, Neutralization of Biocides with MEA (bacterial inoculum [3]; 100 ppm G, Time 9 days): −
Growth, Neutralization of Biocides with MEA (bacterial inoculum [3]; 100 ppm G, Time 14 days): −

NCCO [MEA, Monoethanolamine]
Growth, nitrogen compound control (bacterial inoculum [4]; Time 0 days): −
Growth, nitrogen compound control (bacterial inoculum [4]; Time 1 days): −
Growth, nitrogen compound control (bacterial inoculum [4]; Time 2 days): −
Growth, nitrogen compound control (bacterial inoculum [4]; Time 6 days): −
Growth, nitrogen compound control (bacterial inoculum [4]; Time 7 days): +
Growth, nitrogen compound control (bacterial inoculum [4]; Time 9 days): +
Growth, nitrogen compound control (bacterial inoculum [4]; Time 13 days): +
Growth, nitrogen compound control (bacterial inoculum [4]; Time 20 days): +
neutralizing 10 ppm of glutaraldehyde (bacterial inoculum [4]; two moles per glutaraldehyde): effective
Growth, Neutralization of Biocides with Nitrogen Compounds (bacterial inoculum [4]; Time 0 days): −
Growth, Neutralization of Biocides with Nitrogen Compounds (bacterial inoculum [4]; Time 1 days): −
Growth, Neutralization of Biocides with Nitrogen Compounds (bacterial inoculum [4]; Time 2 days): −
Growth, Neutralization of Biocides with Nitrogen Compounds (bacterial inoculum [4]; Time 6 days): +
Growth, Neutralization of Biocides with Nitrogen Compounds (bacterial inoculum [4]; Time 7 days): +
Growth, Neutralization of Biocides with Nitrogen Compounds (bacterial inoculum [4]; Time 9 days): +
Growth, Neutralization of Biocides with Nitrogen Compounds (bacterial inoculum [4]; Time 13 days): +
Growth, Neutralization of Biocides with Nitrogen Compounds (bacterial inoculum [4]; Time 20 days): +
LC50 at 96 h (in vivo; [5]): 1500 µg/mL (≈ 24600 µM)
LOEC [2]: 1700 mg/L
NOEC [2]: 1000 mg/L

— patent publication US6626122B2, “Deactivatable biocides in ballast water” (Chevron U.S.A. Inc, priority 2001, dated 2003)
